This note sets out measurements from patent US8748415B2 (priority 2011, dated 2014).

Bounds are passed on as bounds.

This assay concerns recombinant NL4-3 virus (Renilla luciferase in nef, Gag P373S). The experiment in a line: HIV cell culture assay (luciferase activity in MT-2 cells infected with NLRluc recombinant virus). Type of assay: cell-based. The settings on record: NL43, MT-2 cells infected 4-5 days with NLRluc recombinant virus. An outline of the steps: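 Activity was read as luciferase output (Dual Luciferase reagents premixed with lysis solution) after 4–5 days of infection in serially diluted inhibitor. Host cells were MT-2 in 10% FBS RPMI. The reporter virus came from transfected 293T cells and was titered on MT-2.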

As usually defined, the EC50 is the concentration that produces a half-maximal response. Take `C=C(C)[C@@H]1CC[C@]2(CN(CCN(C)C)C(=O)CCC(=O)O)CC[C@]3(C)[C@H](CC[C@@H]4[C@@]5(C)CC=C(c6ccc(C(=O)O)cc6)C(C)(C)[C@@H]5CC[C@]43C)[C@@H]12` [Example 13, 4-((1R,3aS,5aR,5bR,7aR,11aS,11bR,13aR,13bR)-3a-((3-carboxy-N-(2-(dimethylamino)ethyl)propanamido)methyl)-5a,5b,8,8,11a-pentamethyl-1-(prop-1-en-2-yl)-2,3,3a,4,5,5a,5b,6,7,7a,8,11,11a,11b,12,13,13a,13b-octadecahydro-1H-cyclopenta[a]chrysen-9-yl)benzoic acid]: the EC50 (class symbol) is under 100 nM.
`C=C(C)[C@@H]1CC[C@]2(CNC(=O)[C@H]3CCCN3C)CC[C@]3(C)[C@H](CC[C@@H]4[C@@]5(C)CC=C(c6ccc(C(=O)O)cc6)C(C)(C)[C@@H]5CC[C@]43C)[C@@H]12` [Example 151, 4-((1R,3aS,5aR,5bR,7aR,11aS,11bR,13aR,13bR)-5a,5b,8,8,11a-pentamethyl-3a-(((R)-1-methylpyrrolidine-2-carboxamido)methyl)-1-(prop-1-en-2-yl)-2,3,3a,4,5,5a,5b,6,7,7a,8,11,11a,11b,12,13,13a,13b-octadecahydro-1H-cyclopenta[a]chrysen-9-yl)benzoic acid]: for the setting “class symbol”, the EC50 is under 100 nM.
Take `C=C(C)[C@@H]1CC[C@]2(CNC(=O)OCCCN3CCCC3=O)CC[C@]3(C)[C@H](CC[C@@H]4[C@@]5(C)CC=C(c6ccc(C(=O)O)cc6)C(C)(C)[C@@H]5CC[C@]43C)[C@@H]12` [Example 166, 4-((1R,3aS,5aR,5bR,7aR,11aS,11bR,13aR,13bR)-5a,5b,8,8,11a-pentamethyl-3a-(((3-(2-oxopyrrolidin-1-yl)propoxy)carbonylamino)methyl)-1-(prop-1-en-2-yl)-2,3,3a,4,5,5a,5b,6,7,7a,8,11,11a,11b,12,13,13a,13b-octadecahydro-1H-cyclopenta[a]chrysen-9-yl)benzoic acid]: under “class symbol”, the EC50 is under 100 nM.
On to `C=C(C)[C@@H]1CC[C@]2(CNCCC(=O)N3CCC(C(=O)O)CC3)CC[C@]3(C)[C@H](CC[C@@H]4[C@@]5(C)CC=C(c6ccc(C(=O)O)cc6)C(C)(C)[C@@H]5CC[C@]43C)[C@@H]12` [Example 104, 1-(3-(((1R,3aS,5aR,5bR,7aR,11aS,11bR,13aR,13bR)-9-(4-carboxyphenyl)-5a,5b,8,8,11a-pentamethyl-1-(prop-1-en-2-yl)-2,3,3a,4,5,5a,5b,6,7,7a,8,11,11a,11b,12,13,13a,13b-octadecahydro-1H-cyclopenta[a]chrysen-3a-yl)methylamino)propanoyl)piperidine-4-carboxylic acid], for which, for the setting “class symbol”, the half-maximal effective concentration (EC50) is under 100 nM.
Still for that read-out and setting: then `C=C(C)[C@@H]1CC[C@]2(CNCCCC(=O)OC(C)(C)C)CC[C@]3(C)[C@H](CC[C@@H]4[C@@]5(C)CC=C(c6ccc(C(=O)O)cc6)C(C)(C)[C@@H]5CC[C@]43C)[C@@H]12` [Example 27, 4-((1R,3aS,5aR,5bR,7aR,11aS,11bR,13aR,13bR)-3a-((4-tert-butoxy-4-oxobutylamino)methyl)-5a,5b,8,8,11a-pentamethyl-1-(prop-1-en-2-yl)-2,3,3a,4,5,5a,5b,6,7,7a,8,11,11a,11b,12,13,13a,13b-octadecahydro-1H-cyclopenta[a]chrysen-9-yl)benzoic acid], with under 100 nM.
Same read-out and setting: under `C=C(C)[C@@H]1CC[C@]2(CNCCN3CCN(S(C)(=O)=O)CC3)CC[C@]3(C)[C@H](CC[C@@H]4[C@@]5(C)CC=C(c6ccc(C(=O)O)cc6)C(C)(C)[C@@H]5CC[C@]43C)[C@@H]12` [Example 179, 4-((1R,3aS,5aR,5bR,7aR,11aS,11bR,13aR,13bR)-5a,5b,8,8,11a-pentamethyl-3a-((2-(4-(methylsulfonyl)piperazin-1-yl)ethylamino)methyl)-1-(prop-1-en-2-yl)-2,3,3a,4,5,5a,5b,6,7,7a,8,11,11a,11b,12,13,13a,13b-octadecahydro-1H-cyclopenta[a]chrysen-9-yl)benzoic acid] stands under 100 nM; under `C=C(C)[C@@H]1CC[C@]2(CNC(=O)NCCN3CCS(=O)(=O)CC3)CC[C@]3(C)[C@H](CC[C@@H]4[C@@]5(C)CC=C(c6ccc(C(=O)O)cc6)C(C)(C)[C@@H]5CC[C@]43C)[C@@H]12` [Example 161, 4-((1R,3aS,5aR,5bR,7aR,11aS,11bR,13aR,13bR)-3a-((((2-(1,1-dioxido-4-thiomorpholinyl)ethyl)carbamoyl)amino)methyl)-1-isopropenyl-5a,5b,8,8,11a-pentamethyl-2,3,3a,4,5,5a,5b,6,7,7a,8,11,11a,11b,12,13,13a,13b-octadecahydro-1H-cyclopenta[a]chrysen-9-yl)benzoic acid], under 100 nM.
Turning to `C=C(C)[C@@H]1CC[C@]2(CNC(=O)Nc3cccnc3)CC[C@]3(C)[C@H](CC[C@@H]4[C@@]5(C)CC=C(c6ccc(C(=O)O)cc6)C(C)(C)[C@@H]5CC[C@]43C)[C@@H]12` [Example 159, 4-((1R,3aS,5aR,5bR,7aR,11aS,11bR,13aR,13bR)-5a,5b,8,8,11a-pentamethyl-1-(prop-1-en-2-yl)-3a-((3-pyridin-3-ylureido)methyl)-2,3,3a,4,5,5a,5b,6,7,7a,8,11,11a,11b,12,13,13a,13b-octadecahydro-1H-cyclopenta[a]chrysen-9-yl)benzoic acid], the concentration giving a half-maximal response (EC50) (numeric value) worked out at 10 nM.
Take `C=C(C)[C@@H]1CC[C@]2(CNCCC(=O)O)CC[C@]3(C)[C@H](CC[C@@H]4[C@@]5(C)CC=C(c6ccc(C(=O)O)cc6)C(C)(C)[C@@H]5CC[C@]43C)[C@@H]12` [Example 64, 4-((1R,3aS,5aR,5bR,7aR,11aS,11bR,13aR,13bR)-3a-((2-carboxymethylamino)methyl)-5a,5b,8,8,11a-pentamethyl-1-(prop-1-en-2-yl)-2,3,3a,4,5,5a,5b,6,7,7a,8,11,11a,11b,12,13,13a,13b-octadecahydro-1H-cyclopenta[a]chrysen-9-yl)benzoic acid]: the concentration giving a half-maximal response (EC50) (class symbol) is under 100 nM.
Regarding `C=C(C)[C@@H]1CC[C@]2(CNCCc3ccc(C(=O)OC)cc3)CC[C@]3(C)[C@H](CC[C@@H]4[C@@]5(C)CC=C(c6ccc(C(=O)O)cc6)C(C)(C)[C@@H]5CC[C@]43C)[C@@H]12` [Example 46, 4-((1R,3aS,5aR,5bR,7aR,11aS,11bR,13aR,13bR)-3a-((4-(methoxycarbonyl)phenethylamino)methyl)-5a,5b,8,8,11a-pentamethyl-1-(prop-1-en-2-yl)-2,3,3a,4,5,5a,5b,6,7,7a,8,11,11a,11b,12,13,13a,13b-octadecahydro-1H-cyclopenta[a]chrysen-9-yl)benzoic acid], the concentration for a half-maximal effect (EC50) (class symbol) is under 100 nM.
As to `C=C(C)[C@@H]1CC[C@]2(CNCCC(=O)N3CCC[C@@H]3C(=O)O)CC[C@]3(C)[C@H](CC[C@@H]4[C@@]5(C)CC=C(c6ccc(C(=O)O)cc6)C(C)(C)[C@@H]5CC[C@]43C)[C@@H]12` [Example 100, (R)-1-(3-(((1R,3aS,5aR,5bR,7aR,11aS,11bR,13aR,13bR)-9-(4-carboxyphenyl)-5a,5b,8,8,11a-pentamethyl-1-(prop-1-en-2-yl)-2,3,3a,4,5,5a,5b,6,7,7a,8,11,11a,11b,12,13,13a,13b-octadecahydro-1H-cyclopenta[a]chrysen-3a-yl)methylamino)propanoyl)pyrrolidine-2-carboxylic acid], the EC50 (class symbol) was under 100 nM.
On to `C=C(C)[C@@H]1CC[C@]2(CNCCC(=O)N3CCCC3)CC[C@]3(C)[C@H](CC[C@@H]4[C@@]5(C)CC=C(c6ccc(C(=O)O)cc6F)C(C)(C)[C@@H]5CC[C@]43C)[C@@H]12` [Example 89, 3-fluoro-4-((1R,3aS,5aR,5bR,7aR,11aS,11bR,13aR,13bR)-5a,5b,8,8,11a-pentamethyl-3a-((3-oxo-3-(pyrrolidin-1-yl)propylamino)methyl)-1-(prop-1-en-2-yl)-2,3,3a,4,5,5a,5b,6,7,7a,8,11,11a,11b,12,13,13a,13b-octadecahydro-1H-cyclopenta[a]chrysen-9-yl)benzoic acid], for which, under “class symbol”, the EC50 was under 100 nM.
On to `C=C(C)[C@@H]1CC[C@]2(CN3CCCC3=O)CC[C@]3(C)[C@H](CC[C@@H]4[C@@]5(C)CC=C(c6ccc(C(=O)O)cc6)C(C)(C)[C@@H]5CC[C@]43C)[C@@H]12` [Example 29], for which, where the note is “numeric value”, the concentration for a half-maximal effect (EC50) was 1000 nM.
As for `C=C(C)[C@@H]1CC[C@]2(CNC(=O)[C@@H]3CCCN3C(C)=O)CC[C@]3(C)[C@H](CC[C@@H]4[C@@]5(C)CC=C(c6ccc(C(=O)O)cc6)C(C)(C)[C@@H]5CC[C@]43C)[C@@H]12` [Example 138, 4-((1R,3aS,5aR,5bR,7aR,11aS,11bR,13aR,13bR)-3a-(((S)-1-acetylpyrrolidine-2-carboxamido)methyl)-5a,5b,8,8,11a-pentamethyl-1-(prop-1-en-2-yl)-2,3,3a,4,5,5a,5b,6,7,7a,8,11,11a,11b,12,13,13a,13b-octadecahydro-1H-cyclopenta[a]chrysen-9-yl)benzoic acid], under “class symbol”, the concentration giving a half-maximal response (EC50) was under 100 nM.
Take `C=C(C)[C@@H]1CC[C@]2(CNC(=O)CN3CCS(=O)(=O)CC3)CC[C@]3(C)[C@H](CC[C@@H]4[C@@]5(C)CC=C(c6ccc(C(=O)O)cc6)C(C)(C)[C@@H]5CC[C@]43C)[C@@H]12` [Example 145, 4-((1R,3aS,5aR,5bR,7aR,11aS,11bR,13aR,13bR)-3a-((((1,1-dioxido-4-thiomorpholinyl)acetyl)amino)methyl)-1-isopropenyl-5a,5b,8,8,11a-pentamethyl-2,3,3a,4,5,5a,5b,6,7,7a,8,11,11a,11b,12,13,13a,13b-octadecahydro-1H-cyclopenta[a]chrysen-9-yl)benzoic acid]: the EC50 (class symbol) was under 100 nM.
